Results as given in patent publication US20020077365A1, “Method for increasing the effectiveness of antiinfective” (The University of Texas System, priority 2000, published 2002).
Like-named read-outs stand apart in the source and are kept apart here.

Assays:
[1] = tested on: wild-type yeast strain INVSC with plasmid pvtl01-U; experiment: Yeast filter disk zone of inhibition with fungicide chlorothalonil with or without ecto-phosphatase inhibitor; format: cell-based, S. cerevisiae; conditions: plates without ecto-phosphatase inhibitor, 48 hours
Description: Increasing Yeast Sensitivity to Fungicide. Additional experiment were performed to test the ability of ecto-phosphatase inhibitors to increase the effectiveness of the commonly used fungicide chlorothalonil. Yeast was plated on media with or without an ecto-phosphatase inhibitor of Formula X where a paper filter disk soaked in the fungicide was added to the plate. After 48 hours, the zone of inhibition of yeast growth around the filter disk was calculated.
The wild-type yeast strain INVSC with plasmid pvtl01-U (for selection on media lacking uracil) was used in all experiments and each experiment was performed in triplicate. Media used was made by combining YNB (Bio 101, Vista, Calif.), the drop out supplement CSM-URA (Bio 101, Vista, CA), and glucose in water. […]
Twenty μl of an overnight saturated culture of yeast was plated onto each plate, spread, and allowed to dry for 20 minutes. […] The zone of inhibition of yeast growth around the disk was assessed after 48 hours.
Plates with chlorothalonil disks indeed contained a zone of inhibition surrounding the disk. […] The zone of inhibition was calculated by measuring the radius from the center of the disk to the point of noticeable yeast growth (at least 10 measurements per plate), averaging the radii measurements, and using the average radius of the plates to calculate the circular area of the zone of inhibition.

[2] = tested on: Arabidopsis thaliana plants (wild-type and AtPGP-1 overexpressing); format: in vivo; conditions: for germination rate: substance alone (cycloheximide 500 ng/ml or phosphatase inhibitor 1 mM), after 10-20 days; for germination: phosphatase inhibitor 1 mM plus cycloheximide 500 ng/ml
Description: Plant Growth: Arabidopsis seeds were sown in a solid germination media containing MS salts (Sigma Chemical, St. Louis, Mo.), 2% sucrose, 0.8% agar, and vitamins (Valvekens et al., 1992). For selection assays, one of the following, or a combination of both, was added to media (cooled to less than 50° C. before adding) immediately prior to pouring into plates: cycloheximide at a final concentration of 500 ng/ml; α,β-methyleneadenosine 5′-diphosphate at a final concentration of 1 mM. Plant growth was measured by germination percentage after 10-20 days. All other materials and methods were discussed above in Example 2.

[3] = tested on: Saccharomyces cerevisiae INVSC1 and YMR4; experiment: Yeast growth selection in drug (plates / liquid turbidity); format: cell-based
Excerpt: Expression of AtPGP-1 in yeast: The AtPGP-1 cDNA (Arabidopsis thaliana MDR gene, accession #X61370) was subdloned into pVT101 downstream of the ADH promoter to create the AtPGP-1/pVT101 construct. AtPGP-1/pVT101 and pVT101 were transformed into Saccharomyces cerevisiae INVSC1 (genotype: MAT, his3-1, leu2, trp1-289, ura3-52) and YMR4 (genotype: MAThis3-11,15, leu2-3, 112ura35, can Res pho5, 3::ura31) by a PEG lithium acetate procedure (Eble, 1992) and selected on uracil dropout medium.
Yeast Growth: Yeast were grown at 30° C. under conditions of constant selection for uracil auxotrophy. YNB (Bio101, Vista, Calif.) supplemented with CSM (uracil dropout) and 2% glucose was used to grow strains having pVT101 constructs. Cycloheximide (Sigma Chemical, St. Louis, Mo.) was added to liquid media or spread on solid media to achieve a final concentration of 500 ng/ml. Nigericin (Sigma Chemical, St. Louis, Mo.) was added to liquid media or spread on solid media to achieve a final concentration of 25 μg/ml. Yeast strains used in cycloheximide selection assays were always propagated in the presence of the cycloheximide on plates and then streaked onto new plates containing drug or no drug, such that induced resistance existed in each strain at the time of the start of the assay. For selection assays on plates, single colonies were streaked; for selection in liquid media 0.01 ml of saturated culture was added to fresh media containing the drug. The plates shown in figures were grown for 3-5 days before photographs were taken. Yeast selection assays in liquid media were quantitated by turbidity as measured by absorbance at OD600.
The same result was obtained when the yeast strains were cultured in nigericin (FIG. 3C, FIG. 3D, FIG. 5B, FIG. 5C). In FIG. 3C and 3D, starting from the top of the dish clockwise, the cells are as follows: INVSC1 (wild-type) overexpressing AtPGP-1, YMk4 containing the vector alone, YMR4 overexpressing AtPGP-I, and INVSC1 containing the vector alone. When grown without drug, all the cells grow (FIG. 3C). […]

[4] = tested on: ecto-apyrase of plasma membrane of cholinergic nerve terminal of Torpedo marmorata electric organs; conditions: Marti et al., 1996; cited from earlier work
[5] = tested on: S. cerevisiae yeast cells (YMR4 and INVSC, with or without AtPGP-1); experiment: Yeast growth in suspension with extracellular ATP, adenosine, phosphate and cycloheximide (turbidity OD600); format: cell-based; conditions: for effect on resistance to cycloheximide: YMR4 cells, added to media with cycloheximide, 72 hours, FIG. 14; for yeast growth in high levels of ATP: 100 mM ATP, FIG. 13
Description: Cell lines: Cell lines were the same as those described above in Example 2 and 3. YMR4 MDR1 is the phosphatase mutant yeast strain overexpressing AtPGP-1; YMR4 pVT11 contains vector alone; INVSC MDR1 is the wild-type yeast strain overexpressing AtPGP-1; and INVSC pVT101 contains vector alone.
Selection in drug: To create drug resistant yeast strains, all four cell lines were grown up in the presence of 500 ng/ml of cycloheximide, and transferred to other cycloheximide containing plates after a period of four to six days. This transfer of cell lines and subculturing continued such that the yeast cells grew in the presence of cycloheximide for a period of at least a month.
Growth of cells in suspension for ATP and drug selection experiments: Cells were transferred into 5 ml YNB -URA liquid media for turbidity measurements. All cell lines (both non-drug selected and drug-selected) were grown in media with the addition of either nothing, 500 ng/ml cycloheximide, 100 mM ATP, or 500 ng/ml cycloheximide and 100 mM ATP. Turbidity readings were taken after 48 hours.
Growth of cell lines in suspension for salvage pathway experiments: All cell lines were grown in liquid media either containing drug (for the drug selected lines) or not containing drug (for the non-drug selected lines). When the cultures reached a turbidity of 1.00 as measured at a wavelength of 600 in a spectrophotometer (OD600=1.00), 10 μl of each culture was then removed and placed in either media with nothing added, 3 mM potassium phosphate; 3 mM adenosine; 9 mM potassium phosphate and 3 mM adenosine (for controls); potassium phosphate and cycloheximide; adenosine and cycloheximide; adenosine, cycloheximide, and potassium phosphate. Cell cultures were further grown for 72 hours, and their turbidity was determined by OD600 readings on a spectrophotometer.

[6] = tested on: Arabidopsis thaliana WS wild-type plants; experiment: Plant sensitivity to herbicides with or without ecto-phosphatase inhibitor; format: in vivo; conditions: inhibitor 5 μg/ml; surflan solution 0.2-20 μl/ml in germination media
Description: Increasing Plant Sensitivity to Herbicides: Arabidopsis thaliana WS wild-type plants were plated on germination media containing two commonly used herbicides, surflan and pendimethalin, in the presence and absence of an ecto-phosphatase inhibitor of Formula II and monitored for their growth in a 22° C. incubator under constant fluorescent illumination.
More specifically, germination media was prepared containing 20 μl/ml, 10 μl/ml, 2 μl/ml, 1 μl/ml, and 0.2 μl/ml of a surflan solution made at the manufacturer's recommended concentration. Compound of Formula II was added to a portion of the germination media at a final concentration of 5 μg/ml.
Arabidopsis thahiana WS wild-type seeds were surface sterilized in a 20% bleach solution for 20 minutes, washed three times in double distilled waster, and resuspended in 0.1% agarose solution. The seeds were then pipetted onto plates containing approximately 3 ml of germination media containing the various concentrations of surflan with and without compound of Formula II. All plates were placed in a 22° C. incubator under constant fluorescent illumination. Growth was assessed daily.
Similar experiments were performed with pendimethalin in the presence and absence of compound of Formula II.

[7] = YMR4 (extracellular phosphatase deficient), vector alone, cycloheximide 500 ng/ml or nigericin 25 μg/ml

N#Cc1c(Cl)c(Cl)c(Cl)c(C#N)c1Cl [chlorothalonil]
average radius of inhibition [1]: 0.33 in.

C[C@@H]1C[C@@H]([C@H](O)CC2CC(=O)NC(=O)C2)C(=O)[C@@H](C)C1 [cycloheximide]
germination rate ([2]; AtPGP-1 overexpressing plants): 50%
germination rate ([2]; wild-type plants): 2%
yeast growth in drug [3, 7]: did not grow
yeast growth in drug ([3]; wild-type INVSC1, cycloheximide 500 ng/ml): did grow

Cc1ccc(C(=O)Nc2ccc(S(=O)(=O)O)c3cc(S(=O)(=O)O)cc(S(=O)(=O)O)c23)cc1NC(=O)c1cccc(NC(=O)Nc2cccc(C(=O)Nc3cc(C(=O)Nc4ccc(S(=O)(=O)O)c5cc(S(=O)(=O)O)cc(S(=O)(=O)O)c45)ccc3C)c2)c1 [Suramin, 8,8′[Carbonylbis[imino-3,1-phenylenecarbonylimino(4-methyl-3,1-phenylene)carbonylimino]]bis-1,3,5-naphthalenetrisulfonic acid]
inhibition of ecto-apyrase activity [4]: potent non-competitive inhibitor

Nc1ncnc2c1ncn2[C@@H]1O[C@H](CO)[C@@H](O)[C@H]1O [adenosine]
effect on resistance to cycloheximide [5]: did not enhance resistance

CO[C@@H]1C[C@@H](C[C@H]2CC[C@H](C)[C@H]([C@@H](C)C(=O)O)O2)O[C@]2(O[C@](C)([C@H]3CC[C@@](C)([C@@H]4O[C@@H]([C@H]5O[C@@](O)(CO)[C@H](C)C[C@@H]5C)C[C@@H]4C)O3)C[C@H]2C)[C@@H]1C [nigericin]
yeast growth in drug [3, 7]: reduced growth

Nc1ncnc2c1ncn2[C@@H]1O[C@H](COP(=O)(O)OP(=O)(O)OP(=O)(O)O)[C@@H](O)[C@H]1O [ATP]
yeast growth in high levels of ATP and drug ([5]; 100 mM ATP plus 500 ng/ml cycloheximide, cell lines previously resistant to drug): unable to grow
yeast growth in high levels of ATP ([5]; cells not previously selected in drug): able to grow
yeast growth in high levels of ATP ([5]; cells previously grown in drug (cycloheximide-selected), not overexpressing AtPGP-1): not able to grow

Nc1ncnc2c1ncn2[C@@H]1O[C@H](COP(=O)(O)CP(=O)(O)O)[C@@H](O)[C@H]1O [α,β-methyleneadenosine 5′-diphosphate]
germination ([2]; AtPGP-1 overexpressing plants): no germination at all
germination rate ([2]; AtPGP-1 overexpressing plants): 83%
germination ([2]; wild-type plants): no germination at all
germination rate ([2]; wild-type plants): 90%

Cc1cccc(NS(=O)(=O)c2ccc(-c3ccccc3)cc2)c1 [Formula II]
effectiveness of surflan as weed killer in presence of inhibitor [6]: equally effective weed killer at a five fold less concentration

O=P(O)(O)O [phosphate, potassium phosphate]
effect on resistance to cycloheximide [5]: did not enhance resistance
